Source: ChEMBL document CHEMBL1201862, “PubChem BioAssay data set” (2004)
The source made the active and inactive calls.

Columns and labels:
[1] = molecular target: Cell division cycle 7-related protein kinase (Homo sapiens, UniProt O00311); type: functional;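 note: value obtained from a kinome-wide kinase panel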
Wee1-like protein kinase = Wee1-like protein kinase (Homo sapiens, UniProt P30291); assay: Navigating the Kinome. Panel member name: WEE1; type: functional
[2] = control 3'UTR Renilla luciferase suppression, dose response, counter-screen for Shn3 inhibitor project, cell-based, Clone20-Shn3RL, cherry-picked (AID 624133); type: functional
[3] = Shn3 3'UTR reporter inhibitors, dose response, cell-based, Clone20 osteoblasts, firefly luciferase, cherry-picked (AID 624132); type: functional;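 note: firefly luciferase luminescence from reporter carrying the Shn3 3'UTR in osteoblasts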
[4] = molecular target: Latent membrane protein 1 (Human herpesvirus 4 (strain B95-8), UniProt P03230); assay: TES1-eGFP NF-kB reporter inhibition versus Tet-On dsRED, dose response, selectivity assay for LMP1 NF-kB inhibitor project, imaging, HEK293T, dual-color eGFP/dsRED, cherry-picks (AID 588398); type: functional, cell-based
[5] = molecular target: Neurotensin receptor type 1 (Homo sapiens, UniProt P30989); type: functional;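 note: Image-based confirmatory dose-response assay measuring agonist activity at NTR1; NTR1-expressing U2OS osteosarcoma cells imaged for beta-arrestin GFP spot formation; agonist potency where compounds increase beta-arrestin recruitment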
Chain of Neurotensin receptor type 1 (P30989 whole entry): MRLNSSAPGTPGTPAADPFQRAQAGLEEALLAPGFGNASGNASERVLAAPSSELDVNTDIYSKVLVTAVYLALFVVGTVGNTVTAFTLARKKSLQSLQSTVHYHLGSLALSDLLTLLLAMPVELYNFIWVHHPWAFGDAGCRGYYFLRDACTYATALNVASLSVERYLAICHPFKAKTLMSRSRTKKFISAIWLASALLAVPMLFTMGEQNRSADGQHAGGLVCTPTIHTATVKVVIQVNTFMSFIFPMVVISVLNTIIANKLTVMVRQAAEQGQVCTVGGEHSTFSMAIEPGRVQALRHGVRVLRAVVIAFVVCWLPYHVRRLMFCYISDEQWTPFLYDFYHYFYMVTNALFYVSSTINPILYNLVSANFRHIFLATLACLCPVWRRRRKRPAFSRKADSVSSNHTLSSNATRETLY

[6] = molecular target: Induced myeloid leukemia cell differentiation protein Mcl-1 (Homo sapiens, UniProt Q07820); type: functional
Beta Lactamase = Beta Lactamase (Pseudomonas aeruginosa, UniProt Q932Y6); assay: beta-lactamase reporter inhibitor potency, dose response, artefact control for NOD2-RIPK2 interaction inhibitor project, BLA reporter cells, FRET fluorescence (AID 651552); type: functional, cell-based
Chain of Beta Lactamase (Q932Y6 whole entry): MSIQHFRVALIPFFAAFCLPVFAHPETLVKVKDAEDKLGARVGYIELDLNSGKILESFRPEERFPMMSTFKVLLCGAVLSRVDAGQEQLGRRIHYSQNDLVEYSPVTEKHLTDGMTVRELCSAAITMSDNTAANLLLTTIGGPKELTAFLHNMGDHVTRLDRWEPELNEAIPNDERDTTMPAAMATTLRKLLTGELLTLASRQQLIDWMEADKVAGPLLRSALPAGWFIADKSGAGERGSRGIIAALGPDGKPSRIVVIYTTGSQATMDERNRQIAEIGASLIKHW

Beta-galactosidase = Beta-galactosidase (Escherichia coli, UniProt Q8VNN2); assay: beta-galactosidase enzyme inhibitors and activators, dose response, artefact control for CCR6 antagonist project, biochemical, E. coli enzyme, set 3 (AID 504712); type: functional
Chain of Beta-galactosidase (Q8VNN2 whole entry): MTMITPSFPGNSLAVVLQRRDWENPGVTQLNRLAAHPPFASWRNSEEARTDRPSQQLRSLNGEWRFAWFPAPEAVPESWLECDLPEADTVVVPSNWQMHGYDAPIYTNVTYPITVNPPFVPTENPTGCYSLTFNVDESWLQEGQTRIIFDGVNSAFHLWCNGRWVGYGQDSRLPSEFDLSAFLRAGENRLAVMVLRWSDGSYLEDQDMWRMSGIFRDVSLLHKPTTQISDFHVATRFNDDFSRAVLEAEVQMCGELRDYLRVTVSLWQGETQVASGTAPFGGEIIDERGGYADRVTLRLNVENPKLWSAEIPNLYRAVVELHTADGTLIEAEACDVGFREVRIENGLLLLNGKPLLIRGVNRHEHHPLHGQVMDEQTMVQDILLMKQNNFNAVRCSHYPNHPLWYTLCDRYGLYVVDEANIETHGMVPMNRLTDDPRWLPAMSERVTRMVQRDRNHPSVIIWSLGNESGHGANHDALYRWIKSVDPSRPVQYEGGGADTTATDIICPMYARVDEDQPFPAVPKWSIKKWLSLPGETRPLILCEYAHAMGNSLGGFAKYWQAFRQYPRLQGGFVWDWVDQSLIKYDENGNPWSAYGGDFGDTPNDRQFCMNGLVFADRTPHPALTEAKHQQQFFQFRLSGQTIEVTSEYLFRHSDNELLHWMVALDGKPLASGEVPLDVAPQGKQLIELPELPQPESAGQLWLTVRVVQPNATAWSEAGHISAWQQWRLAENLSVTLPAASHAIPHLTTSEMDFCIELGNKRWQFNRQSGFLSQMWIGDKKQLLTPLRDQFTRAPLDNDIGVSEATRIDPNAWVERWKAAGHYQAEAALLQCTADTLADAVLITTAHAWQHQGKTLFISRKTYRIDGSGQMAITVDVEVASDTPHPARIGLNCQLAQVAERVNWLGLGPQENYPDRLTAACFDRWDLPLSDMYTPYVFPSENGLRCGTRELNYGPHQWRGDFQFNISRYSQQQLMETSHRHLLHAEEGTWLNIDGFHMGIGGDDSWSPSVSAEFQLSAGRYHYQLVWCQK

HEK293 = assay: inhibitors of LMP1-driven NF-kB reporter, dose response, cell-based, HEK293, luciferase, cherry-pick (AID 588343); type: functional; conditions: Homo sapiens
[7] = HepG2 cell cytotoxicity, dose response, cytotoxicity control for Shn3 inhibitor project, CellTiter-Glo, cherry-picked (AID 624134); type: functional, cell-based
[8] = Fluorescence-based cell-based high throughput dose response assay for inhibitors of the interaction of nucleotide-binding oligomerization domain containing 2 (NOD2) and the receptor-interacting serine-threonine kinase 2 (RIPK2).; type: functional; conditions: Homo sapiens
[9] = Luminescence Cell-Based Dose Confirmation HTS to Identify Inhibitors of Platelet Dense Granule Release. [Related pubchem assays: 1663 (Primary HTS), 1678 (Summary of Project)]; type: functional
[10] = THP-1 cell cytotoxicity, cytotoxicity control, set 5 (AID 588443); type: functional
[11] = molecular target: Luciferin 4-monooxygenase (Photinus pyralis, UniProt P08659); assay: firefly luciferase enzyme inhibitors, dose response, biochemical, luminescence (AID 1891)
Chain of Luciferin 4-monooxygenase (P08659 whole entry): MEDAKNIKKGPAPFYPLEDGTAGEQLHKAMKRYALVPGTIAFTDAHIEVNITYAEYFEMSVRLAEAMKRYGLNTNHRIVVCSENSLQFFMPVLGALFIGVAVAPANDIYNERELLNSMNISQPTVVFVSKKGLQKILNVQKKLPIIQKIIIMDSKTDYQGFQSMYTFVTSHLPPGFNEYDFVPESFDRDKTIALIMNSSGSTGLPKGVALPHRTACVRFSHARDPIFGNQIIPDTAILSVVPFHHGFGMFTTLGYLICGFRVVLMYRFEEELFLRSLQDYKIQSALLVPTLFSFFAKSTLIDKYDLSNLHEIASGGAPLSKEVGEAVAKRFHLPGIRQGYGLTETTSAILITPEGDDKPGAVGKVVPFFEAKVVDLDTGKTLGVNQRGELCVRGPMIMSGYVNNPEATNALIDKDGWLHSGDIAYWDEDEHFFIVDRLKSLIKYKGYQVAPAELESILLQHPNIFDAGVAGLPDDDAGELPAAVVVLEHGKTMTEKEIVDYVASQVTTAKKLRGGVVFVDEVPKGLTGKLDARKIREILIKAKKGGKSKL

[12] = Vero cell cytotoxicity, dose response, cytotoxicity control for M. tuberculosis inhibitor project, purified and synthesized compounds, set 6 (AID 588445); type: functional; conditions: Mycobacterium tuberculosis
Candida albicans [13] = assay: single-agent growth inhibition of C. albicans, dose response, counter-screen for antifungal drug resistance project, C. albicans CaCi-2, dry powder (AID 488802); type: functional, organism-based
Candida albicans [14] = assay: growth inhibition of resistant C. albicans, dose response, CaCi-8, fluconazole, Alamar Blue, dry powder (AID 488807); type: functional, organism-based
NIH3T3 = assay: cytotoxicity in NIH-3T3 fibroblasts, dose response, cytotoxicity control for antifungal drug resistance project, cell-based, Alamar Blue, fluconazole, dry powder (AID 488809); type: functional; conditions: Mus musculus
[15] = molecular target: Mitogen-activated protein kinase 13 (Homo sapiens, UniProt O15264); type: functional
Chain of Mitogen-activated protein kinase 13 (O15264 whole entry): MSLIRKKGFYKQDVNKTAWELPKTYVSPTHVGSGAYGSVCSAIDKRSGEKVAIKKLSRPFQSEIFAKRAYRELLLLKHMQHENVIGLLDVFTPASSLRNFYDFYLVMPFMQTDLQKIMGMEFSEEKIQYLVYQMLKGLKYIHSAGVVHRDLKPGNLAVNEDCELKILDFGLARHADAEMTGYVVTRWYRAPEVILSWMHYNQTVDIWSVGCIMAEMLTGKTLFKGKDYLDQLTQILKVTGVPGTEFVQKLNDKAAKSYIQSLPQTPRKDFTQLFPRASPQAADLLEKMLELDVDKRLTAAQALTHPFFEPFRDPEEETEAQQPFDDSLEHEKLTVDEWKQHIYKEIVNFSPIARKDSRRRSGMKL

[16] = molecular target: Mast/stem cell growth factor receptor Kit (Homo sapiens, UniProt P10721); type: functional;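 note: KIT entry within a kinase panel assay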
Chain of Mast/stem cell growth factor receptor Kit (P10721 whole entry): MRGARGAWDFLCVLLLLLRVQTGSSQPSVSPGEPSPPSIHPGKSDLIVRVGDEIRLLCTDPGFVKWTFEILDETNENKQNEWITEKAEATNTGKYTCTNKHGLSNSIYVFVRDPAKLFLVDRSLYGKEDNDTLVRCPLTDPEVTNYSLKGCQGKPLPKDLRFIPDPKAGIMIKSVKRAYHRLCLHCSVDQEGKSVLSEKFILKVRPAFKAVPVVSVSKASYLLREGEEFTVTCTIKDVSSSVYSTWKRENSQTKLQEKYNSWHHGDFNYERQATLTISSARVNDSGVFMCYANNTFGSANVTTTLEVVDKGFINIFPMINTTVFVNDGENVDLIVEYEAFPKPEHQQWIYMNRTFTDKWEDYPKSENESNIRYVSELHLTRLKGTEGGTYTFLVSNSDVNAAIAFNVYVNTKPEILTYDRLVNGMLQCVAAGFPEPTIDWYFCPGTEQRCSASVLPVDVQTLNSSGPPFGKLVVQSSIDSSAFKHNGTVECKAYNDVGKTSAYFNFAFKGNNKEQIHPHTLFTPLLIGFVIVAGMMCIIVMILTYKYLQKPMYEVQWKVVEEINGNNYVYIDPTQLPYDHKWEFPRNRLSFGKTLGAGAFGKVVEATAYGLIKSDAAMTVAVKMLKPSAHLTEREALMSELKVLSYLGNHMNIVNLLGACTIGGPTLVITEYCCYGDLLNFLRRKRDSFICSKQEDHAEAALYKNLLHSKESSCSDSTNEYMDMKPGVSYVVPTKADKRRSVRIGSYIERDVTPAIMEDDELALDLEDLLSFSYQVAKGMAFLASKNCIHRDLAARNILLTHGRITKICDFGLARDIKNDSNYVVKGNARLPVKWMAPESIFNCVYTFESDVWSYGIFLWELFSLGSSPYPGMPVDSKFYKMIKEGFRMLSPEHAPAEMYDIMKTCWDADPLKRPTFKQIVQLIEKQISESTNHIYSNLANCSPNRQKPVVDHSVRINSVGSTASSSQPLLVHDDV

Chain of Wee1-like protein kinase (P30291 whole entry): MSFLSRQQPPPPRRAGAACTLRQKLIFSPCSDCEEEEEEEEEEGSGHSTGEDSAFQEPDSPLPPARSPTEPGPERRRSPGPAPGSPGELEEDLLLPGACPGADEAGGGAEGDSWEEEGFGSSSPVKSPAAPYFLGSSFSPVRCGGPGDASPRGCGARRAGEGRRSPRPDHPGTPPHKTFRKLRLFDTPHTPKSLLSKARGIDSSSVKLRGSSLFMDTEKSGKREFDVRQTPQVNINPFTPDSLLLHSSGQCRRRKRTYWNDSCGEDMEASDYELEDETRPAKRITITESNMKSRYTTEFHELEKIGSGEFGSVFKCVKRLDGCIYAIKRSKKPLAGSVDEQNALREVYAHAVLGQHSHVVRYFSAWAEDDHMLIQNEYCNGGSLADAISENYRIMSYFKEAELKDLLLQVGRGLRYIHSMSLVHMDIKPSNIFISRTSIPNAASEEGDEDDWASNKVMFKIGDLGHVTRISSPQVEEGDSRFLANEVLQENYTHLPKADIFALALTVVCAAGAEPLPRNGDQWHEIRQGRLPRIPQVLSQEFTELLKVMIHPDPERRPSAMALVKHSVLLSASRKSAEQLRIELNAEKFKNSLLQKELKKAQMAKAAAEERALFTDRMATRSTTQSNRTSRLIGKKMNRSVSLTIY
Chain of Cell division cycle 7-related protein kinase (O00311 whole entry): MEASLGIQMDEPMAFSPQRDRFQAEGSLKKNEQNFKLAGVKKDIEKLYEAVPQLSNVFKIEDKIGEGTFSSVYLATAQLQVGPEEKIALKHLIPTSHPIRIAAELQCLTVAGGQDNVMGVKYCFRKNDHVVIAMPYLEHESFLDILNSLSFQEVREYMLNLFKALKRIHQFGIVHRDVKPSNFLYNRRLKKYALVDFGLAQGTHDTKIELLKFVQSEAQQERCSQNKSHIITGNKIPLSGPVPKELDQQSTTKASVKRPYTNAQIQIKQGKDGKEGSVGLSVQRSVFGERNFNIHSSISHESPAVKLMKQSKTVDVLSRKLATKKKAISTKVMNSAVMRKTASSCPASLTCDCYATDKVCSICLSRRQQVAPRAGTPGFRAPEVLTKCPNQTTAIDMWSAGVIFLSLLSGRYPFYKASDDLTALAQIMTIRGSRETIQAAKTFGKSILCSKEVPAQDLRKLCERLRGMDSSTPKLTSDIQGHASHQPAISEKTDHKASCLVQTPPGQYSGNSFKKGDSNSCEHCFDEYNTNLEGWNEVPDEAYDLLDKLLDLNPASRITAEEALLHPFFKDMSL

For `c1cc(NC2CCCCC2)nc(Nc2ccc3cn[nH]c3c2)n1`, which Ki [1] is on record?
Its Ki is 2 µM (active).

What about the Ki (Wee1-like protein kinase) of the same molecule?
The Ki was 1 µM (active).

For `CCOc1ccc(/C=C/[N+](=O)[O-])c2ccccc12`, which AC50 [2] is on record?
The AC50 was 13.9 µM (active).

And the AC50 [3]?
The AC50 was 4.27 µM (active).

And the AC50 [4]?
Its AC50 is 1.63 µM (active).

What about the EC50 [5] of the same molecule?
The EC50 was 9.56 µM (active).

And the IC50 [6]?
The IC50 was 2.18 µM (active).

And the IC50 (Beta Lactamase)?
Its IC50 is 43.1 µM (inactive).

What about the IC50 (Beta-galactosidase) of the same molecule?
The IC50 was > 66.6 µM (inactive).

What about the AC50 (HEK293) of the same molecule?
Its AC50 is 4.67 µM (active).

What about the AC50 [7] of the same molecule?
Its AC50 is 3.78 µM (active).

What about the IC50 [8] of the same molecule?
The IC50 was 1.76 µM (active).

With `O=C(NCCc1ccc(Cl)cc1)c1ccc(CNc2c(N3CCOCC3)c(=O)c2=O)cc1` as the molecule, how does the EC50 [9] read?
The EC50 was > 112 µM (not active).

What about the CC50 [10] of the same molecule?
The CC50 was > 100 µM (active).

What about the EC50 [11] of the same molecule?
The EC50 was > 112 µM (not active).

And the CC50 [12]?
The CC50 was > 100 µM (active).

With `COc1ccc(NC(=O)Cn2c3ccccc3c3nc4n(c(=O)c32)CCS4)cc1` as the molecule, how does the AC50 (Candida albicans [13]) read?
Its AC50 is 50.1 µM (active).

What about the AC50 (Candida albicans [14]) of the same molecule?
Its AC50 is 12.7 µM (active).

And the AC50 (NIH3T3)?
Its AC50 is 34.2 µM (active).

Which Ki [15] does the source give for `COc1cc(-c2nn(C3CCC(N4CCN(C(C)=O)CC4)CC3)c3ncnc(N)c23)ccc1NC(=O)c1cc2ccccc2n1C` (stereo unspecified) here?
Its Ki is > 7.94 µM (inactive).

And the Ki [16]?
Its Ki is > 1.26 µM (inactive).
